The values below come from patent US20140371158A1, “BEAUVERICIN COMPOSITIONS AND METHODS THEREOF FOR INHIBITING THE HSP90 CHAPERONE PATHWAY” (Georgia Regents University, priority 2013, published 2014).

Data set [1] relates to Hsp90 chaperone (refolding of PRA in RRL). Put plainly: Progesterone receptor (PR) reconstitution assay in rabbit reticulocyte lysate, recovery of hormone binding activity. It is filed as biochemical. An excerpt:
To identify novel small molecule inhibitors of molecular chaperones, a high-throughput functional screen was developed based on the isoform A of progesterone receptor (PRA), a well-established physiological client of Hsp90, and using rabbit reticulocyte lysate (RRL) as a source of molecular chaperones. This comprehensive functional assay measured the recovery of hormone binding activity of PRA after mild heat treatment. Purified PR was adsorbed onto PR22 antibody bound to protein A that was absorbed on 96 well plates. 100 μl of RRL lysate and ATP regeneration system was added to each well. After incubation for 30 min at 30° C., 0.1 μM [^3H]-progesterone (American Radiolabeled Chemicals, Inc #ART 0063) was added. Plates were incubated on ice for 2 h at 4° C. Complexes were then washed three times with 200 μl of reaction buffer (20 mM Tris/HCl, pH 7.5, 5 mM MgCl2, 2 mM DTT, 0.01% NP-40, 50 mM KCl and 5 mM ATP) and assessed for bound progesterone by liquid scintillation using PerkinElmer Microbeta plate reader.
Beauvericin was added to the PR reconstitution assay as in example 1, and hormone binding activity was measured.

The next data set deals with PRA complexes. As to the kind of experiment: PR reconstitution assay in tubes, composition of protein complexes by SDS-PAGE. Type of data set: biochemical, rabbit. The note with it: FIG. 3. On the procedure:
(§1) Purified PR was adsorbed onto PR22 antibody-protein A-sepharose resin beads and was assembled into complexes as described previously (Kosano, et al., J Biol Chem, 273:32973-9 (1998)). Briefly, about 0.05 μM PR was incubated with 100 μl of RRL. After incubation for 30 min at 30° C., 0.1 μM [^3H]-progesterone (American Radiolabeled Chemicals, Inc #ART 0063) was added. Samples were incubated on ice for 3 h at 4° C. Complexes were then washed three times with 1 ml reaction buffer (20 mM Tris/HCl, pH 7.5, 5 mM MgCl2, 2 mM DTT, 0.01% NP-40, 50 mM KCl and 5 mM ATP) and assessed for bound progesterone by liquid scintillation using PerkinElmer Microbeta plate reader, and for composition of protein complexes by SDS-PAGE (10% gel) and Coomassie blue staining.

Data set [2] deals with Hsp90, Hsp70, Hsp40, HOP and p23. Put plainly: PR reconstitution assay using the five purified chaperones. It is filed as biochemical. Particulars: FIG. 4. On the procedure:
as §1, with “Chem” for “Chem,”, “1.4 μM Hsp70, 0.8 μM Hsp90β, 0.2 μM Hsp40 (Ydj), 0.08 μM HOP and 2.6 μM p23 in reaction buffer (20 mM Tris/HCl, pH 7.5, 5 mM MgCl2, 2 mM DTT, 0.01% NP-40, 50 mM KCl and 5 mM ATP).” for “100 μl of RRL.”, “ml of” for “ml”, “buffer” for “buffer (20 mM Tris/HCl, pH 7.5, 5 mM MgCl2, 2 mM DTT, 0.01% NP-40, 50 mM KCl and 5 mM ATP)”, “reader” for “reader,”

For data set [3], the system named is Hs578T breast cancer cells. Put plainly: Cytotoxicity assay, Hs578T. It is filed as cell-based. Particulars: 0-10 μM, 24, 48, 72 h, FIG. 6A.
Data set [4] has as its system MDA-MB-453 breast cancer cells. Put plainly: Cytotoxicity assay, MDA-MB-453. Particulars: 0-10 μM, 24, 48, 72 h, FIG. 6B. Type of data set: cell-based.
Data set [5] has as its system Hsp90 client proteins in Hs578T cells. Put plainly: Western blot of Hsp90 client proteins, Hs578T. Type of data set: cell-based. Particulars: 3 μM, 48 h. On the procedure: (§2) Breast cancer cell lines Hs578T and MDA-MB-453 at 40% confluence in 6-well plates (Corning #3516) were cultured for 24 h and then treated with various concentrations of beauvericin. Cells were harvested at indicated time and cell lysates were made. 15 μg of protein lysate were analyzed by Western blotting using specific antibodies for the indicated proteins.
(§3) Cell lysates prepared in Example 5 were analyzed for markers for heat shock response using western blot. These include overexpression of Hsp70, Hsp27, Hsp40 and HOP.
Background: A western blot detects proteins with antibodies after separation by electrophoresis.

In data set [6] the test system is Hsp90 client proteins in MDA-MB-453 cells. Put plainly: Western blot of Hsp90 client proteins, MDA-MB-453. It is filed as cell-based. Particulars: 3 μM, 48 h. On the procedure: as §2, §3
The subject of data set [7] is Hsp70, Hsp27, Hsp40 and HOP in Hs578T and MDA-MB-453 cells. As to the kind of experiment: Western blot of markers for heat shock response. It is filed as cell-based. The note with it: 3 μM, 48 h, FIG. 7. On the procedure:
as §2, §3

The subject of another data set is HeLa-PRB cells. Put plainly: Immunocytochemistry and fluorescence microscopy, nucleocytoplasmic trafficking of steroid receptors. It is filed as cell-based. On the procedure: HeLa-PRB cells were grown in 24-well plates (Corning #3337) on micro-cover glasses (Electron Microscopy Sciences) to about 50% confluence in MEM, 1× (Cellgro #10-010-CV) medium supplemented with 10% fetal bovine serum. Cells were treated with 3 μM beauvericin (or DMSO control) for 24 h. Cells were fixed with 0.1 M PIPES, pH 6.95, 1 mM EGTA, pH 8.0, 3 mM MgSO4, 3% paraformaldehyde, permeabilized with 0.1% triton X-100, and blocked with 10% fetal bovine serum with 5% glycerol and stored at 4° C. Primary antibodies against PRB, GR and Hsp90 and secondary antibodies were prepared in the blocking buffer. Coverslips were washed and mounted on slides with ProLong Gold anti-fade reagent with 4′,6-diamidino-2-phenylindole (Invitrogen). Cells were imaged using a Zeiss Imager M1 microscope. Deconvolution of Z-stack images was done using an inverse filter algorithm with auto-linear normalization.

For data set [8] the following is noted: Sigma-Aldrich product B7510, powder; cited from earlier work.

Values after ≈ are worked out from the molar mass of the structure shown.

Regarding `CC(C)[C@@H]1OC(=O)[C@@H](Cc2ccccc2)N(C)C(=O)[C@H](C(C)C)OC(=O)[C@@H](Cc2ccccc2)N(C)C(=O)[C@H](C(C)C)OC(=O)[C@@H](Cc2ccccc2)N(C)C1=O` [beauvericin], in data set [1] (FIG. 1, compared with 17-AAG), the “inhibition of reconstitution of PRA in RRL (hormone binding activity)” value was “comparable efficacy to the classical Hsp90 inhibitor 17-AAG”. Also, in [1] (FIG. 2, 0, 1, 5, 10, 20, 40 μM), the “inhibition of the ability of the Hsp90 chaperone to refold PRA” value was “concentration-dependent manner”. The “level of Hsp90 in PRA complexes” value in the data set on PRA complexes is given as “decreased”. Besides, the “recruitment of Exportin-7 into PRA complexes” value in the data set with PRA complexes (mass spectrometry) is “caused the recruitment of a novel protein into these complexes”. Further, in data set [2], the “inhibitory activity on five-protein system (PRA reconstitution)” value is “no inhibitory activity”. Moreover, the “in vitro cytotoxicity (relative survival)” value in [3] is listed as “potent in vitro cytotoxicity”. For the same compound, in [4], the “in vitro cytotoxicity (relative survival)” value was “potent in vitro cytotoxicity”. Further, in data set [5], the AKT destabilization result is given as “destabilized” and the Her2 destabilization result is on record as “reverse profile”. Besides, the “cellular degradation of Hsp90 clients (AKT, pAKT, CDK4, ILK, Her2, Her3, GR)” value in data set [5] (FIG. 7A) is given as “caused cellular degradation”. Besides, in [6], the AKT destabilization entry is “not” and the Her2 destabilization entry is “reverse profile”. Further, the “cellular degradation of Hsp90 clients (AKT, pAKT, CDK4, ILK, Her2, Her3, GR)” value in data set [6] (FIG. 7B) was “caused cellular degradation”. In addition, in data set [7], the Hsp40 expression entry is “down-regulates” and the “overexpression of HOP” value is recorded as “does not induce overexpression”. Further, in [7] (in contrast to 17-AAG), the “overexpression of Hsp27” value is on record as “does not induce overexpression” and the “overexpression of Hsp70” value is “does not induce overexpression”. Further, the “PRB stability by Western blot” value with HeLa-PRB cells (HeLa-PRB cells) is on record as “not destabilized”. In the data set with HeLa-PRB cells (HeLa-PRB, 3 μM, 24 h), the “PRB recognition by the monoclonal antibody PR6 in immunocytochemistry” value is listed as “reproducibly blocked” and the “glucocorticoid receptor (GR) localization” value is listed as “lock it in the nucleus”. In data set [8], the solubility in acetonitrile is 1000 µg/mL (≈ 1280 µM) and the solubility in methanol was 1000 µg/mL (≈ 1280 µM).
